Source: patent US4259235A, “Tricyclic nitrogenous compounds having string plant growth regulating properties” (BASF Aktiengesellschaft, priority 1977, dated 1981)

What was measured:
spring barley [1] = assay: Growth height of spring barley, soil treatment, Example 10; type: in vivo, spring barley ("Union" variety)
Procedure: (§1) Spring wheat ("Opal" variety) and spring barley ("Union" variety) were grown under greenhouse conditions in plastic dishes 11.5 cm in diameter, in a peat substrate provided with sufficient nutrients. For the soil (preemergence) treatment, the active ingredients were poured, at two application rates, as aqueous formulations onto the surface of the substrate after sowing.
(§2) The plant height was measured at the end of the experiment. The figures obtained show the shortening effect of the active ingredients under investigation. The prior art compound β-chloroethylphosphonic acid (Ethephon, German Printed Application DAS No. 1,667,968) was used for comparison purposes.

spring wheat [2] = assay: Growth height of spring wheat, soil treatment, Example 10; type: in vivo, spring wheat ("Opal" variety)
Procedure: as §1, §2

spring wheat [3] = assay: Growth height of spring wheat, leaf treatment, Example 10; type: in vivo, spring wheat ("Opal" variety)
Procedure: as §1
(§3) Leaf treatment was effected by spraying the plants at a growth height of 10 cm with aqueous formulations of the active ingredients at two application rates.
as §2

spring barley [4] = assay: Growth height of spring barley, leaf treatment, Example 10; type: in vivo, spring barley ("Union" variety)
Procedure: as §1, §3, §2

Compound	Plant height (spring wheat [2]; 3 kg/ha) [cm]	Plant height, % of untreated control (spring wheat [2]; 3 kg/ha) [%]	Plant height (spring wheat [2]; 12 kg/ha) [cm]	Plant height, % of untreated control (spring wheat [2]; 12 kg/ha) [%]	Plant height (spring wheat [3]; 1.5 kg/ha) [cm]	Plant height, % of untreated control (spring wheat [3]; 1.5 kg/ha) [%]	Plant height (spring wheat [3]; 6.0 kg/ha) [cm]	Plant height, % of untreated control (spring wheat [3]; 6.0 kg/ha) [%]	also measured
O=P(O)(O)CCCl [Ethephon, β-chloroethylphosphonic acid, reference compound]	29.0	90.6	25.0	78.1	30.0	91.5	25.0	76.2	Plant height (spring barley [1]; 3 kg/ha): 32.0 cm; Plant height, % of untreated control (spring barley [1]; 3 kg/ha): 93.3%; Plant height (spring barley [1]; 12 kg/ha): 27.5 cm; Plant height, % of untreated control (spring barley [1]; 12 kg/ha): 80.2%; Plant height (spring barley [4]; 1.5 kg/ha): 27.0 cm; Plant height, % of untreated control (spring barley [4]; 1.5 kg/ha): 96.4%; Plant height (spring barley [4]; 6.0 kg/ha): 24.5 cm; Plant height, % of untreated control (spring barley [4]; 6.0 kg/ha): 87.5%
Clc1ccc(C2N=NC3C4CC(C5N=NC45)C23)cc1 (centres unmarked) [drawing 392]	17.0	53.1	14.0	43.8	–	–	–	–	–
Brc1ccc(C2=NOC3C4CC(C5N=NC45)C23)cc1 (centres unmarked) [drawing 393]	26.5	82.8	25.5	79.7	–	–	–	–	–
O=[N+]([O-])c1ccc(C2=NOC3C4CC(C5N=NC45)C23)cc1 (centres unmarked) [drawing 394]	25.5	79.7	22.0	68.8	–	–	–	–	–
Cc1ccc(C2=NOC3C4CC(C5N=NC45)C23)cc1 (centres unmarked) [drawing 395]	23.5	73.4	22.0	68.8	–	–	–	–	–
COc1ccc(C2=NOC3C4CC(C5N=NC45)C23)cc1 (centres unmarked) [drawing 396]	27.0	84.4	24.5	76.6	–	–	–	–	–
Clc1ccc(C2=NOC3C4CC(C5N=NC45)C23)cc1 (centres unmarked) [drawing 397]	16.0	50.0	15.0	46.9	–	–	–	–	–
Clc1ccc(C2N=NC3C4CC(C5N=NC45)C23)cc1 (centres unmarked) [drawing 398]	–	–	–	–	23.5	71.6	22.0	67.1	–
Brc1ccc(C2=NOC3C4CC(C5N=NC45)C23)cc1 (centres unmarked) [drawing 399]	–	–	–	–	29.0	88.4	27.5	83.8	–
O=[N+]([O-])c1ccc(C2=NOC3C4CC(C5N=NC45)C23)cc1 (centres unmarked) [drawing 400]	–	–	–	–	29.0	88.4	27.0	82.3	–
Cc1ccc(C2=NOC3C4CC(C5N=NC45)C23)cc1 (centres unmarked) [drawing 401]	–	–	–	–	29.5	89.9	27.5	83.3	–
Clc1ccc(C2=NOC3C4CC(C5N=NC45)C23)cc1 (centres unmarked) [drawing 402]	–	–	–	–	29.0	88.4	27.0	82.3	–
FC(F)(F)c1cccc(NC2C(I)C3CC2C2N=NC32)c1 (centres unmarked) [drawing 403]	–	–	–	–	27.5	83.3	25.5	77.7	–
Clc1ccc(C2N=NC3C4CC(C5N=NC45)C23)cc1 (centres unmarked) [drawing 404]	–	–	–	–	–	–	–	–	Plant height (spring barley [1]; 3 kg/ha): 22.0 cm; Plant height, % of untreated control (spring barley [1]; 3 kg/ha): 64.1%; Plant height (spring barley [1]; 12 kg/ha): 20.0 cm; Plant height, % of untreated control (spring barley [1]; 12 kg/ha): 58.3%
